Measured values as given in patent publication US8859569B2, “Substituted annellated pyrimidines and use thereof” (Bayer Pharma Aktiengesellschaft, priority 2011, dated 2014).

Legend:
[1] = target: T1, human phosphodiesterase 5 (PDE-5) (Homo sapiens, UniProt O76074); assay: Inhibition of human phosphodiesterase 5 (PDE-5), SPA assay; format: biochemical; details: PDE-5 preparation from human platelets, [8-3H]cGMP substrate
T1 construct: PDE-5 preparations are obtained from human platelets by lysis; from tissue; host or cells: human platelets
Method in brief: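 PDE-5 partially purified from human platelets by Mono Q chromatography, diluted so under 70% of [8-3H]cGMP (0.025 μCi) converted. Compounds at 4 μM to 0.0018 μM final, Tris-HCl pH 7.5 with MgCl2, 60 min at room temperature. Yttrium SPA beads stop reaction; IC50 from concentration–inhibition plots.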

[2] = target: T2, recombinant guanylate cyclase reporter cell line (Rattus norvegicus, UniProt P19686+P20595); assay: Action on recombinant guanylate cyclase reporter cell line; format: cell-based
T2 construct: expressed in transfected cells
T2 sequence (P20595 1-619): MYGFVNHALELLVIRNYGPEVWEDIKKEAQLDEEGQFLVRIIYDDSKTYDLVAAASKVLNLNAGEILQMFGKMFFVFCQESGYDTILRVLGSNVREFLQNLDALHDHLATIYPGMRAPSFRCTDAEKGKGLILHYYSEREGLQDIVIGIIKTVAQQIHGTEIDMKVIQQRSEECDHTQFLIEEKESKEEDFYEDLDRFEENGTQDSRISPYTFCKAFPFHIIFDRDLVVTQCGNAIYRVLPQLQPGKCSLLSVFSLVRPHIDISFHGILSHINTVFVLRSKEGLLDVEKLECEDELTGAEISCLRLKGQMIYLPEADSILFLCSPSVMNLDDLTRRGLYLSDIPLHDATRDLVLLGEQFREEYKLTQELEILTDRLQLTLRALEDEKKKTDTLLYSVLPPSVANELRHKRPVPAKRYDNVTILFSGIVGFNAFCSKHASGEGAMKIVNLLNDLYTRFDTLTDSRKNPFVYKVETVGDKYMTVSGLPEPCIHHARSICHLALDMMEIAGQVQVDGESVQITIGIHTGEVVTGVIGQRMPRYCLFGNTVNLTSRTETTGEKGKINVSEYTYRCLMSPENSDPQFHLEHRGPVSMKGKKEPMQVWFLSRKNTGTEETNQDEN
T2 sequence (P19686 1-690): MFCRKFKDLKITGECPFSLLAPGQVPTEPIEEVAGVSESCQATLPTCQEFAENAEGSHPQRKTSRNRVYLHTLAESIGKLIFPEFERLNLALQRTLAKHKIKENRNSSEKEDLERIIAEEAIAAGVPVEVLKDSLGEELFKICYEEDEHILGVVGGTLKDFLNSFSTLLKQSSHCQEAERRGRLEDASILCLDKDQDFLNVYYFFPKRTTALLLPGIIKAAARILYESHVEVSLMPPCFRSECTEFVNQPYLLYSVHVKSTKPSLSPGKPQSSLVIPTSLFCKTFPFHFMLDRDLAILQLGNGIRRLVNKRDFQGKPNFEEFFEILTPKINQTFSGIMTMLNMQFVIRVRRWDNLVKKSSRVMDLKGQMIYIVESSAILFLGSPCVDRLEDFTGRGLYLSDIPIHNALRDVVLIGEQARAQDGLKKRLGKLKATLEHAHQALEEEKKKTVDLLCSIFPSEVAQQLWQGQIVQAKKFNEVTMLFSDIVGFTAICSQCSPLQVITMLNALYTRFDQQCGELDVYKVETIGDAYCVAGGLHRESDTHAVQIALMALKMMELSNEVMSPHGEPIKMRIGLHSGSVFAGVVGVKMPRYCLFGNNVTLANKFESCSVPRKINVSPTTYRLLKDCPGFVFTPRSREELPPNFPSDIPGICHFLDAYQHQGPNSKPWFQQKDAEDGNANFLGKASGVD
Description: B-2. Action on Recombinant Guanylate Cyclase Reporter Cell Line
The cellular action of the compounds according to the invention is determined on a recombinant guanylate cyclase reporter cell line, as described in F. Wunder et al., Anal. Biochem. 339, 104-112 (2005).

aorta rings = assay: Vessel-relaxing action in vitro (aorta rings, phenylephrine contraction); details: Oryctolagus cuniculus, concentration required to reduce phenylephrine-induced contraction of rabbit aorta rings by 50%
Description: B-1. Vessel-relaxing Action in vitro
Rabbits are stunned with a blow on the back of the neck and exsanguinated. The aorta is removed, freed from adhering tissue, separated into rings with a width of 1.5 mm, and placed individually, with preloading, in 5-ml organ baths with carbogen-gassed Krebs-Henseleit solution at 37° C. with the following composition (mM in each case): sodium chloride: 119; potassium chloride: 4.8; calcium chloride dihydrate: 1; magnesium sulphate heptahydrate: 1.4; potassium dihydrogen phosphate: 1.2; sodium hydrogen carbonate: 25; glucose: 10. The contraction force is recorded with Statham UC2 cells, amplified and digitized via an A/D converter (DAS-1802 HC, Keithley Instruments Munich) and recorded in parallel on a continuous-line recorder. To produce contraction, phenylephrine is added to the bath cumulatively in increasing concentration. After several control cycles, the test substance is added in increasing dosage in each subsequent pass and the level of contraction is compared with the level of contraction reached in the immediately preceding pass. This is used for calculating the concentration that is required to reduce the level of the control value by 50% (IC50 value). The standard application volume is 5 μl, and the proportion of DMSO in the bath solution corresponds to 0.1%.

SMILES | IC50 [1] | MEC (minimal effective concentration) [2] | IC50 (aorta rings)
CC1(C)C(=O)Nc2nc(-c3nn(Cc4ccccc4F)c4ncccc34)nc(OCC(F)(F)F)c21 [Example 115, 2-[1-(2-Fluorobenzyl)-1H-pyrazolo[3,4-b]pyridin-3-yl]-5,5-dimethyl-4-(2,2,2-trifluoroethoxy)-5,7-dihydro-6H-pyrrolo[2,3-d]pyrimidin-6-one] | 250 nM | 0.3 μm | 1630 nM
CC1(C)C(=O)Nc2nc(-n3nc(Cc4ccccc4F)c4ccccc43)nc(O)c21 [Example 22, 2-[3-(2-Fluorobenzyl)-1H-indazol-1-yl]-4-hydroxy-5,5-dimethyl-5,7-dihydro-6H-pyrrolo[2,3-d]pyrimidin-6-one] | 580 nM | 0.03 μm | 530 nM
CC1(C)C(=O)Nc2nc(-c3nn(Cc4ccccc4F)c4ncccc34)nc(N3CCC(C(F)(F)F)C3)c21 (stereo not drawn) [Example 33, 2-[1-(2-Fluorobenzyl)-1H-pyrazolo[3,4-b]pyridin-3-yl]-5,5-dimethyl-4-[3-(trifluoromethyl)pyrrolidin-1-yl]-5,7-dihydro-6H-pyrrolo[2,3-d]pyrimidin-6-one] | 570 nM | 0.3 μm | 696 nM
CC1(C)C(=O)Nc2nc(-c3nn(Cc4ccccc4F)c4ncccc34)nc(N3CCOC(C(F)(F)F)C3)c21 (stereo not drawn) [Example 32, 2-[1-(2-Fluorobenzyl)-1H-pyrazolo[3,4-b]pyridin-3-yl]-5,5-dimethyl-4-[2-(trifluoromethyl)morpholin-4-yl]-5,7-dihydro-6H-pyrrolo[2,3-d]pyrimidin-6-one] | 720 nM | 1.0 μm | 9160 nM
CC1(C)C(=O)Nc2nc(-c3nn(Cc4ccccc4F)c4ncccc34)nc(N3CC(N4CCCC4)C3)c21 [Example 105, 2-[1-(2-Fluorobenzyl)-1H-pyrazolo[3,4-b]pyridin-3-yl]-5,5-dimethyl-4-[3-(pyrrolidin-1-yl)azetidin-1-yl]-5,7-dihydro-6H-pyrrolo[2,3-d]pyrimidin-6-one] | 980 nM | 0.3 μm | 478 nM
CC1(C)C(=O)Nc2nc(-c3nn(Cc4ccccc4F)c4ncc(F)cc34)nc(NCC3CC3(C)C)c21 (stereo not drawn) [Example 99, 4-{[(2,2-Dimethylcyclopropyl)methyl]amino}-2-[5-fluoro-1-(2-fluorobenzyl)-1H-pyrazolo[3,4-b]pyridin-3-yl]-5,5-dimethyl-5,7-dihydro-6H-pyrrolo[2,3-d]pyrimidin-6-one] | 440 nM | 0.3 μm | 10000 nM
CC1(C)C(=O)Nc2nc(-c3nn(Cc4ccccc4F)c4ncc(F)cc34)nc(NCCCC(F)(F)F)c21 [Example 18, 2-[5-Fluoro-1-(2-fluorobenzyl)-1H-pyrazolo[3,4-b]pyridin-3-yl]-5,5-dimethyl-4-[(4,4,4-trifluorobutyl)amino]-5,7-dihydro-6H-pyrrolo[2,3-d]pyrimidin-6-one] | 120 nM | 0.03 μm | 2720 nM
CC1(C)C(=O)Nc2nc(-c3nn(Cc4ncccc4F)c4ncc(F)cc34)nc(N3CC(F)C3)c21 [Example 15, 4-(3-Fluoroazetidin-1-yl)-2-{5-fluoro-1-[(3-fluoropyridin-2-yl)methyl]-1H-pyrazolo[3,4-b]pyridin-3-yl}-5,5-dimethyl-5,7-dihydro-6H-pyrrolo[2,3-d]pyrimidin-6-one] | 430 nM | 1.0 μm | 453 nM
C[C@H](Nc1nc(-c2nn(Cc3ccccc3F)c3ncc(F)cc23)nc2c1C(C)(C)C(=O)N2)C1CC1 [Example 89, 4-{[(1S)-1-Cyclopropylethyl]amino}-2-[5-fluoro-1-(2-fluorobenzyl)-1H-pyrazolo[3,4-b]pyridin-3-yl]-5,5-dimethyl-5,7-dihydro-6H-pyrrolo[2,3-d]pyrimidin-6-one] | 82 nM | 0.03 μm | 3880 nM
CC1(C)C(=O)Nc2nc(-c3nn(Cc4ccccc4F)c4ncccc34)nc(-n3cccc(F)c3=O)c21 [Example 24, 2-[1-(2-Fluorobenzyl)-1H-pyrazolo[3,4-b]pyridin-3-yl]-4-(3-fluoro-2-oxopyridin-1(2H)-yl)-5,5-dimethyl-5,7-dihydro-6H-pyrrolo[2,3-d]pyrimidin-6-one] | 100 nM | 0.1 μm | 573 nM
CC1(C)C(=O)Nc2nc(-c3nn(Cc4ccccc4F)c4ncc(F)cc34)nc(N3CCC(F)(F)CC3)c21 [Example 103, 4-(4,4-Difluoropiperidin-1-yl)-2-[5-fluoro-1-(2-fluorobenzyl)-1H-pyrazolo[3,4-b]pyridin-3-yl]-5,5-dimethyl-5,7-dihydro-6H-pyrrolo[2,3-d]pyrimidin-6-one] | 400 nM | 1 μm | 551 nM
CCN1CCN(c2nc(-c3nn(Cc4ccccc4F)c4ncccc34)nc3c2C(C)(C)C(=O)N3)C1=O [Example 21, 4-(3-Ethyl-2-oxoimidazolidin-1-yl)-2-[1-(2-fluorobenzyl)-1H-pyrazolo[3,4-b]pyridin-3-yl]-5,5-dimethyl-5,7-dihydro-6H-pyrrolo[2,3-d]pyrimidin-6-one] | 400 nM | 0.03 μm | 100 nM
CC1(C)C(=O)Nc2nc(-c3nn(Cc4ccccc4F)c4ncc(F)cc34)nc(N3CC(O)C3)c21 [Example 104, 2-[5-Fluoro-1-(2-fluorobenzyl)-1H-pyrazolo[3,4-b]pyridin-3-yl]-4-(3-hydroxyazetidin-1-yl)-5,5-dimethyl-5,7-dihydro-6H-pyrrolo[2,3-d]pyrimidin-6-one] | 80 nM | 0.1 μm | 482 nM
CC1(C)C(=O)Nc2nc(-c3nn(Cc4ccccc4F)c4ncccc34)nc(O)c21 [Example 109, 2-[1-(2-Fluorobenzyl)-1H-pyrazolo[3,4-b]pyridin-3-yl]-4-hydroxy-5,5-dimethyl-5,7-dihydro-6H-pyrrolo[2,3-d]pyrimidin-6-one] | 50 nM | 0.03 μm | 81 nM
CC1(C)C(=O)Nc2nc(-c3nn(Cc4ccccc4F)c4ncc(F)cc34)nc(NCCC(F)(F)F)c21 [Example 5, 2-[5-Fluoro-1-(2-fluorobenzyl)-1H-pyrazolo[3,4-b]pyridin-3-yl]-5,5-dimethyl-4-[(3,3,3-trifluoropropyl)amino]-5,7-dihydro-6H-pyrrolo[2,3-d]pyrimidin-6-one] | 130 nM | 0.03 μm | 285 nM
